How the values were obtained:
Assay type in all cases: cell-based
[1] = tested on: MALME-3M; test: In vitro tumor cell efficacy test (SRB), Melonoma; details: Homo sapiens, 72 hours
[2] = tested on: HCT-15; test: In vitro tumor cell efficacy test (SRB), Colon Cancer; details: Homo sapiens; HCT-15, Colon Cancer, 72 hours
[3] = tested on: RXF 393; test: In vitro tumor cell efficacy test (SRB), Renal Cancer; details: Homo sapiens, RXF 393, Renal Cancer, 72 hours
[4] = tested on: ACHN; test: as above; details: Homo sapiens, 72 hours
[5] = tested on: SF-268; test: In vitro tumor cell efficacy test (SRB), CNS Cancer; details: Homo sapiens, SF-268, CNS Cancer, 72 hours
[6] = tested on: IGROV1; test: In vitro tumor cell efficacy test (SRB), Ovarian Cancer; details: Homo sapiens, IGROV-1, 72 hours
[7] = tested on: MDA-MB-231/ATCC; test: In vitro tumor cell efficacy test (SRB), Breast Cancer; details: Homo sapiens, 72 hours
[8] = tested on: SNB-19; test: In vitro tumor cell efficacy test (SRB), CNS Cancer; details: Homo sapiens, SNB-19, CNS Cancer, 72 hours
[9] = tested on: HL-60(TB); test: In vitro tumor cell efficacy test (SRB), Leukemia; details: Homo sapiens, 72 hours
[10] = tested on: UO-31; test: In vitro tumor cell efficacy test (SRB), Renal Cancer; details: Homo sapiens, UO-31, Renal Cancer, 72 hours
[11] = tested on: EKVX; details: Homo sapiens, Non-Small Cell Lung Cancer, 72 hours
[12] = tested on: MDA-MB-435; test: In vitro tumor cell efficacy test (SRB), Breast Cancer; details: Homo sapiens, MDA-MB-435, Breast Cancer, 72 hours
[13] = tested on: NCI-H23; details: Homo sapiens, NCI-H23, Non-Small Cell Lung Cancer, 72 hours
[14] = tested on: MDA-N; test: In vitro tumor cell efficacy test (SRB), Breast Cancer; details: Homo sapiens, 72 hours
[15] = tested on: SF-539; test: In vitro tumor cell efficacy test (SRB), CNS Cancer; details: Homo sapiens; SF-539, CNS Cancer, 72 hours
[16] = tested on: SK-OV-3; test: In vitro tumor cell efficacy test (SRB), Ovarian Cancer; details: Homo sapiens, SK-OV-3, Ovarian Cancer, 72 hours
[17] = tested on: SK-MEL-2; test: In vitro tumor cell efficacy test (SRB), Melonoma; details: Homo sapiens, SK-MEL-2, Melonoma, 72 hours
[18] = tested on: TK-10; test: In vitro tumor cell efficacy test (SRB), Renal Cancer; details: Homo sapiens; TK-10, Renal Cancer, 72 hours
[19] = tested on: OVCAR-8; test: In vitro tumor cell efficacy test (SRB), Ovarian Cancer; details: Homo sapiens, OVCAR-8, Ovarian Cancer, 72 hours
[20] = tested on: K-562; test: In vitro tumor cell efficacy test (SRB), Leukemia; details: Homo sapiens, K562, K-562, Leukemia, 72 hours
[21] = tested on: SNB-75; test: In vitro tumor cell efficacy test (SRB), CNS Cancer; details: Homo sapiens, SNB-75, CNS Cancer, 72 hours
[22] = tested on: UACC-62; test: In vitro tumor cell efficacy test (SRB), Melonoma; details: Homo sapiens, UACC-62, Melonoma, 72 hours
[23] = tested on: HOP-92; details: Homo sapiens, HOP-92, Non-Small Cell Lung Cancer, 72 hours
[24] = tested on: SN12C; test: In vitro tumor cell efficacy test (SRB), Renal Cancer; details: Homo sapiens, 72 hours
[25] = tested on: PC-3; test: In vitro tumor cell efficacy test (SRB), Prostate Cancer; details: Homo sapiens, PC-3, Prostate Cancer, 72 hours
[26] = tested on: OVCAR-5; test: In vitro tumor cell efficacy test (SRB), Ovarian Cancer; details: Homo sapiens; OVCAR-5, Ovarian Cancer, 72 hours
[27] = tested on: U251; test: In vitro tumor cell efficacy test (SRB), CNS Cancer; details: Homo sapiens, U-251, 72 hours
[28] = tested on: A549/ATCC; details: Homo sapiens, Non-Small Cell Lung Cancer, 72 hours
[29] = tested on: CAKI-1; test: In vitro tumor cell efficacy test (SRB), Renal Cancer; details: Homo sapiens, CAKI-1, Renal Cancer, 72 hours
[30] = tested on: OVCAR-4; test: In vitro tumor cell efficacy test (SRB), Ovarian Cancer; details: Homo sapiens, OVCAR-4, Ovarian Cancer, 72 hours
[31] = tested on: SW-620; test: In vitro tumor cell efficacy test (SRB), Colon Cancer; details: Homo sapiens, SW-620, Colon Cancer, 72 hours
[32] = tested on: T-47D; test: In vitro tumor cell efficacy test (SRB), Breast Cancer; details: Homo sapiens, T47D, 72 hours
[33] = tested on: 786-0; test: In vitro tumor cell efficacy test (SRB), Renal Cancer; details: Homo sapiens, 786-0, Renal Cancer, 72 hours
[34] = tested on: NCI/ADR-RES; test: In vitro tumor cell efficacy test (SRB), Breast Cancer; details: Homo sapiens, 72 hours
[35] = read-out: Log (LC50) (the source's name) (converted)

Nc1nccc(-c2cc(-c3ccc(O)cc3)ccc2O)n1 [3-(2-Amino-pyrimidin-4-yl)-biphenyl-4,4′-diol] was tested, and the GI50 [1] was 501 nM, the CC50 [1, 35] was > 100000 nM and the GI50 [2] was 126 nM. The LC50 [2] was > 100000 nM, the GI50 [3] was 1000 nM and the CC50 [3, 35] was 6310 nM. The GI50 [4] was 251 nM, the CC50 [4, 35] was > 100000 nM and the GI50 [5] was 251 nM. For the same compound, the CC50 [5, 35] was > 100000 nM, the GI50 [6] was 251 nM and the CC50 [6, 35] was > 100000 nM. The GI50 [7] was 251 nM, the CC50 [7, 35] was > 100000 nM and the GI50 [8] was 200 nM. For the same compound, the CC50 [8, 35] was 20000 nM, the GI50 [9] was 126 nM and the CC50 [9, 35] was 79400 nM. For the same compound, the GI50 [10] was 251 nM, the CC50 [10, 35] was > 100000 nM and the GI50 [11] was 251 nM. For the same compound, the CC50 [11, 35] was > 100000 nM, the GI50 [12] was 251 nM and the CC50 [12, 35] was > 100000 nM. For the same compound, the GI50 [13] was 251 nM, the CC50 [13, 35] was > 100000 nM and the GI50 [14] was 251 nM. The CC50 [14, 35] was > 100000 nM, the GI50 [15] was 200 nM and the LC50 [15] was > 100000 nM. For the same compound, the GI50 [16] was 501 nM, the CC50 [16, 35] was > 100000 nM and the GI50 [17] was 200 nM. For the same compound, the CC50 [17, 35] was 3160 nM, the GI50 [18] was 2000 nM and the LC50 [18] was > 100000 nM. The GI50 [19] was 200 nM, the CC50 [19, 35] was > 100000 nM and the GI50 [20] was 398 nM. For the same compound, the CC50 [20, 35] was > 100000 nM, the GI50 [21] was 2000 nM and the CC50 [21, 35] was > 100000 nM. For the same compound, the GI50 [22] was 200 nM, the CC50 [22, 35] was 12600 nM and the GI50 [23] was 398 nM. The CC50 [23, 35] was > 100000 nM, the GI50 [24] was 251 nM and the CC50 [24, 35] was > 100000 nM. For the same compound, the GI50 [25] was 251 nM, the CC50 [25, 35] was > 100000 nM and the GI50 [26] was 2000 nM. For the same compound, the LC50 (50% lethal concentration) [26] was > 100000 nM, the GI50 [27] was 200 nM and the CC50 [27, 35] was > 100000 nM. The GI50 [28] was 316 nM, the GI50 [29] was 398 nM and the CC50 [29, 35] was > 100000 nM. For the same compound, the GI50 [30] was 316 nM, the CC50 [30, 35] was > 100000 nM and the GI50 [31] was 316 nM. For the same compound, the CC50 [31, 35] was > 100000 nM, the GI50 [32] was 2000 nM and the CC50 [32, 35] was 50100 nM. The GI50 [33] was 251 nM, the CC50 [33, 35] was > 100000 nM and the GI50 [34] was 316 nM. The CC50 [34, 35] was > 100000 nM.

Reference: patent publication US20030187007A1, “Inhibitors of protein kinase for the treatment of disease” (priority 2001, published 2003)
